Activity calls are given as the source filed them.

A word on the AC50: it is the midpoint of the concentration-response curve, whichever way the signal moves. The term CC50 denotes the concentration at which the toxic effect on the cells reaches its halfway point. Broadly, the IC50 is the concentration that inhibits the measured activity by half. In general, EC50 refers to the concentration giving half of the maximal effect.

Data set [1] in a line: cytotoxicity in HMLE control line with eGFP shRNA, dose response, counter-screen for HMLE_sh_ECad selective toxicity project, cell-based, HMLE_sh_eGFP, luminescence (AID 463074).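 Further: HMLE human mammary epithelial cells expressing control shRNA against eGFP.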 Format: functional, Homo sapiens. In general terms: Counterscreens check selectivity or assay interference.
Data set [2] is described as follows: Luminescence Cell-Based Dose Retest to Confirm Inhibitors of Cancer Stem Cells. [Related pubchem assays (depositor defined):AID2717, AID2721]. In kind it is functional. Particulars: Homo sapiens.
Data set [3] in a line: miR-122 activators in hepatoma reporter cells, dose response, cell-based, Huh7 psiCHECK-miR122, Renilla luciferase, cherry-picked (AID 651956).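 Further: huh7 hepatoma cells stably carrying a psiCHECK-2 miR-122 sensor plasmid; renilla luciferase signal reporting endogenous miR-122 activity after 48 h compound exposure.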 In kind it is functional.
A short description of data set [4]: HEp-2 cell cytotoxicity, dose response, cytotoxicity control for RSV inhibitor project, HTS (AID 2410). Format: functional. Particulars: human respiratory syncytial virus.
Data set [5] has as its target T1, Sentrin-specific protease 6 (Homo sapiens, UniProt Q9GZR1).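 Further: Luminescence-based dose-response confirmatory assay of SENP6 inhibition, following up an ultra-high-throughput screen.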
T1 sequence (Q9GZR1 whole entry): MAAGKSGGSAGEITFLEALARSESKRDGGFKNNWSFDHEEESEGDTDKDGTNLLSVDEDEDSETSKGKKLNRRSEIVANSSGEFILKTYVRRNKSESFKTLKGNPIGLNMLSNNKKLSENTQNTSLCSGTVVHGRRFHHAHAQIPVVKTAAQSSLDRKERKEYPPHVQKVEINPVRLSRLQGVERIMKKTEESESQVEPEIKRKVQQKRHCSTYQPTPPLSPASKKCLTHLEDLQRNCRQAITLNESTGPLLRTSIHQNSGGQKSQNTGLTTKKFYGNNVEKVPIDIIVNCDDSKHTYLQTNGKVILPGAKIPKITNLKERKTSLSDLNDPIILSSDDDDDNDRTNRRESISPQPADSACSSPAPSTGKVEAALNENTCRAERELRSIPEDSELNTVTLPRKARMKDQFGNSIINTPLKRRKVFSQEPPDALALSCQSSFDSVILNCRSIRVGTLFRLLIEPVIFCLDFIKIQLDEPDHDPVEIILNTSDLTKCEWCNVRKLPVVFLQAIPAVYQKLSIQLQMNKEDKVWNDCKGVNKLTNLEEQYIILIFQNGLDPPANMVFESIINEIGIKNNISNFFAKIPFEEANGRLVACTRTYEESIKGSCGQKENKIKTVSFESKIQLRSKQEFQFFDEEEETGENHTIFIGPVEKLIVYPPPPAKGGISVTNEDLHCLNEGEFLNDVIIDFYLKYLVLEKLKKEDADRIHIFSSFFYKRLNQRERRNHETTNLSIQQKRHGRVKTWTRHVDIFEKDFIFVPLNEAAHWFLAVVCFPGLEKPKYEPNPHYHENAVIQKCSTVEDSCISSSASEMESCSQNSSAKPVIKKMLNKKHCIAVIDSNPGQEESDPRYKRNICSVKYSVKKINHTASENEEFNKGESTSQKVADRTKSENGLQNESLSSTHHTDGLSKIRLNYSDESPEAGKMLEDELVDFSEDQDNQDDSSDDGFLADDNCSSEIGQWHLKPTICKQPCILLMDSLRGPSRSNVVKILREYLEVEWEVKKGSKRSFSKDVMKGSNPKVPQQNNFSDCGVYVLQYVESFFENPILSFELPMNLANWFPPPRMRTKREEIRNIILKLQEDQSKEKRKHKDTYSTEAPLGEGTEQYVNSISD
Format: functional.

The next data set has as its target T2, Caspase-3 (Homo sapiens, UniProt P42574).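 Further: Dose-response selectivity test against caspase-3 for candidate inhibitors of sentrin-specific proteases (SENPs).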
T2 sequence (P42574 whole entry): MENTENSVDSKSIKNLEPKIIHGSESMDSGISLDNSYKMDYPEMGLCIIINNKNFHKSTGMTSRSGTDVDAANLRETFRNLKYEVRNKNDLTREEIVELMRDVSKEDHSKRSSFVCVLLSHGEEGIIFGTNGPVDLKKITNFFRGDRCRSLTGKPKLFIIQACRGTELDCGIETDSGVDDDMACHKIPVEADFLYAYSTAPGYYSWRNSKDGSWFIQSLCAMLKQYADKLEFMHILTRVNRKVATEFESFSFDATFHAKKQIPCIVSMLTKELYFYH
Format: functional.

In data set [6] the target is T3, Sentrin-specific protease 8 (Homo sapiens, UniProt Q96LD8).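 Further: luminescence read-out of SENP8 inhibition, dose-response confirmation following an ultra-high-throughput screen.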
T3 sequence (Q96LD8 whole entry): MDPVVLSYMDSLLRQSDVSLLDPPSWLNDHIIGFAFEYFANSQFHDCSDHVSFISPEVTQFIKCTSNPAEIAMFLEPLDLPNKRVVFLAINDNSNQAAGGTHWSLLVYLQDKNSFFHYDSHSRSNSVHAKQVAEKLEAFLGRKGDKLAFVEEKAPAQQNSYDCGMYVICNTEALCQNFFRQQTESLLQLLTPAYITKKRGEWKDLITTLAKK
In kind it is functional.

Another data set has as its system H9c2. Briefly: cells. The conditions noted are these: Rattus norvegicus, H9c2, Myocardium. In kind it is functional, cell-based.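 Further: confirmatory concentration-response retest of ultra-high-throughput screening hits for modulation of myocardial damage; cell death induced by hydrogen peroxide oxidative stress; compound pretreatment for 60 min then peroxide exposure for 2 h; potency is for protecting the cells against peroxide damage rather than for killing them.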
Data set [7] deals with T4, Sentrin-specific protease 7 (Homo sapiens, UniProt Q9BQF6).
T4 sequence (Q9BQF6 whole entry): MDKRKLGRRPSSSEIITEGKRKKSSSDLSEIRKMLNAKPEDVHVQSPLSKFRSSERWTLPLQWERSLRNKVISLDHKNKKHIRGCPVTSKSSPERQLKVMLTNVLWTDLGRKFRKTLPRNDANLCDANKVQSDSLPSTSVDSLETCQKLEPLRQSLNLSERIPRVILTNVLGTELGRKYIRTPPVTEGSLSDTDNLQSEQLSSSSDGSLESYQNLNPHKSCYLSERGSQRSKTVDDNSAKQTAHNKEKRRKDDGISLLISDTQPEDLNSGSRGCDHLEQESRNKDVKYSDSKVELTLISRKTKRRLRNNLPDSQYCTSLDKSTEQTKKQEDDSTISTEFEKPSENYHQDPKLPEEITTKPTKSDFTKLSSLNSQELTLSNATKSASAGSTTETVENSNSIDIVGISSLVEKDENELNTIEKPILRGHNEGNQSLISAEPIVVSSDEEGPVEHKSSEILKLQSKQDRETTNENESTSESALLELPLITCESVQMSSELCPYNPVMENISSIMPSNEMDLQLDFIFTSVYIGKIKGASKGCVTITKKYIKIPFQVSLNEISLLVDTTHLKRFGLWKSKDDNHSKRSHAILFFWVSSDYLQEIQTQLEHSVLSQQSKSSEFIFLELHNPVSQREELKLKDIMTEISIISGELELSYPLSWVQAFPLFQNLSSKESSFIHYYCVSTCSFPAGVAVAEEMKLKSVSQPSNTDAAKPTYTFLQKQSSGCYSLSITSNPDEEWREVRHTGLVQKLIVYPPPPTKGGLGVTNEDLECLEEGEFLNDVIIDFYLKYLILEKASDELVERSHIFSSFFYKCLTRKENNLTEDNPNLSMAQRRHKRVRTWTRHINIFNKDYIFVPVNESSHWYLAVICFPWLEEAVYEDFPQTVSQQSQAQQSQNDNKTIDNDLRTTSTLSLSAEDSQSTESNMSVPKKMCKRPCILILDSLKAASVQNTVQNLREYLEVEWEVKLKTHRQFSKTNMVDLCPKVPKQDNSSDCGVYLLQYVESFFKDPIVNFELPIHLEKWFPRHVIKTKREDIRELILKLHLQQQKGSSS
Format: functional.

In data set [8] the target is DNA (cytosine-5)-methyltransferase 1 (Homo sapiens, UniProt P26358). Briefly: DNMT1 methyltransferase inhibitors, confirmation, biochemical, fluorescent molecular beacon (AID 602386). In kind it is functional.
Chain of DNA (cytosine-5)-methyltransferase 1 (P26358 whole entry): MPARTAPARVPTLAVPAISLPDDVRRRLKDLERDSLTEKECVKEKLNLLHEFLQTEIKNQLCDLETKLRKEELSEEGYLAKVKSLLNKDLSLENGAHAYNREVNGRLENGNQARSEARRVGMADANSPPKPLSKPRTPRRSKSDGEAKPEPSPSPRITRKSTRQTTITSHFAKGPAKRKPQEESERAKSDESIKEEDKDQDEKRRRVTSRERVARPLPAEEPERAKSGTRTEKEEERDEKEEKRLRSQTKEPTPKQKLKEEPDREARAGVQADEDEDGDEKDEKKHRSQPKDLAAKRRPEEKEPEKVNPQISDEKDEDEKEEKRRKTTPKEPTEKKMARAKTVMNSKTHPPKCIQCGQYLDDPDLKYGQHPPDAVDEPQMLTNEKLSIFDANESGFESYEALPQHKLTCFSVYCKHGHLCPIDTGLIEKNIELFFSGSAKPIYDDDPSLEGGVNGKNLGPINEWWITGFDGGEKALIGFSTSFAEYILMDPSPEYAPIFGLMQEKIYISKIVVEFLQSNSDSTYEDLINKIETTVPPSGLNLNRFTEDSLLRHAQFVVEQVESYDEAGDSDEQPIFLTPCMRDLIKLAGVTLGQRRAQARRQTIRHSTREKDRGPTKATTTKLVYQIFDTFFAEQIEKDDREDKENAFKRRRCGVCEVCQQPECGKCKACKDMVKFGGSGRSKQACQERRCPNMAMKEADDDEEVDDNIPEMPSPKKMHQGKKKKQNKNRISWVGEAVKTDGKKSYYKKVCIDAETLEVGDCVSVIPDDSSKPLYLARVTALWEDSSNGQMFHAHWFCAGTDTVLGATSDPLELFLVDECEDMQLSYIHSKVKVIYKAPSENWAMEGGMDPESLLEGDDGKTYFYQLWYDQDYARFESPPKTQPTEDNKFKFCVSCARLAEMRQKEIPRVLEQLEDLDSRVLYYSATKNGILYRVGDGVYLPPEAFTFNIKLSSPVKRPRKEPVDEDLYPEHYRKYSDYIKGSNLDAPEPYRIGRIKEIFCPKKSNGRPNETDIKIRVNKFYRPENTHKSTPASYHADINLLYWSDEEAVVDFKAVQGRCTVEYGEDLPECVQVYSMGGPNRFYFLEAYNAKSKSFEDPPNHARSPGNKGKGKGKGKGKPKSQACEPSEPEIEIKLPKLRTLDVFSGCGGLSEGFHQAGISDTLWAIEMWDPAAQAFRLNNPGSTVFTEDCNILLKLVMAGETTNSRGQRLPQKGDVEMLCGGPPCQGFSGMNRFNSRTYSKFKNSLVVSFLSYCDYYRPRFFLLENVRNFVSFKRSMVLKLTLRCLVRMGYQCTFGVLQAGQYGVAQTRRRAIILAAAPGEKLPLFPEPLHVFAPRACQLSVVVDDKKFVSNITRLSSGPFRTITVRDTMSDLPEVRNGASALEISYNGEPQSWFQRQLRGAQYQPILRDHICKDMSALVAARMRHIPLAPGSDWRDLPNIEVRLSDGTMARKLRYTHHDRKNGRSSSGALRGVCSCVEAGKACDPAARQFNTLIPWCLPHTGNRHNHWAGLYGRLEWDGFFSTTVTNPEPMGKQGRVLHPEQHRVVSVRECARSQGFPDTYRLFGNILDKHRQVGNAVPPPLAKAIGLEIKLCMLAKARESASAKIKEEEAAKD
For another data set, the target named is Cytochrome P450 2D6 (Homo sapiens, UniProt P10635).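 Further: CYP2D6 member of a cytochrome P450 panel assay.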
Chain of Cytochrome P450 2D6 (P10635 whole entry): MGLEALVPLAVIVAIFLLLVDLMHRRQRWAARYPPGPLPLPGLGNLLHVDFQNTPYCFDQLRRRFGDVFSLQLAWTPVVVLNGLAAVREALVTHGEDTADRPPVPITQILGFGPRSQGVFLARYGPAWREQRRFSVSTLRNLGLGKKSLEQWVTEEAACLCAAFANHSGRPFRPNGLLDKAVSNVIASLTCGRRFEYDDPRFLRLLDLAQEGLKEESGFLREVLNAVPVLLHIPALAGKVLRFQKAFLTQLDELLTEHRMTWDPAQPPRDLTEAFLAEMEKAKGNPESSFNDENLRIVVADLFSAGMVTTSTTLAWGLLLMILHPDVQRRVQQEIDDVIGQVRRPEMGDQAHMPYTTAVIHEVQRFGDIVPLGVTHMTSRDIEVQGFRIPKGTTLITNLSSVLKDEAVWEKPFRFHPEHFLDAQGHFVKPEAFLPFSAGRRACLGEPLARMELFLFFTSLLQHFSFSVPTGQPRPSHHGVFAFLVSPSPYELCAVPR
The next data set has as its target Cytochrome P450 2C9 (Homo sapiens, UniProt P11712).
The target of a further data set is Cytochrome P450 2C19 (Homo sapiens, UniProt P33261). Briefly: Cytochrome panel assay with activity outcomes. Panel member name: p450-cyp2c19 Compounds with AC50 equal or less than 10 uM are considered active. In kind it is functional.
Chain of Cytochrome P450 2C19 (P33261 whole entry): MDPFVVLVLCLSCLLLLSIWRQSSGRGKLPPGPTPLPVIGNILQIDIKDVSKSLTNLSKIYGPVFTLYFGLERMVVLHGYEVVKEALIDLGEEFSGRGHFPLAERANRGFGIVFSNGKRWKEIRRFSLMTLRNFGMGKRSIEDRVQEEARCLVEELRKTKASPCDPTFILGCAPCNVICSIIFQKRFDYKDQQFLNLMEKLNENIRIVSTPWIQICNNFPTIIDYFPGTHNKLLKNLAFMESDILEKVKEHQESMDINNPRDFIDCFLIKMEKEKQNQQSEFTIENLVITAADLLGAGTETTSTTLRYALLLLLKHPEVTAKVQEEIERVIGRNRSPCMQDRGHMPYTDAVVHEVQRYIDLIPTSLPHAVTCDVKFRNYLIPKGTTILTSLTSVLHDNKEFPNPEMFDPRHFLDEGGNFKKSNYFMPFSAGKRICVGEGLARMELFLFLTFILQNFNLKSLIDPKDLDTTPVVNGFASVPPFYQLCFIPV
The target in the next data set is T5, Cytochrome P450 1A2 (Homo sapiens, UniProt P05177).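 Further: PubChem cytochrome P450 panel assay, CYP1A2 panel member.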
T5 sequence (P05177 whole entry): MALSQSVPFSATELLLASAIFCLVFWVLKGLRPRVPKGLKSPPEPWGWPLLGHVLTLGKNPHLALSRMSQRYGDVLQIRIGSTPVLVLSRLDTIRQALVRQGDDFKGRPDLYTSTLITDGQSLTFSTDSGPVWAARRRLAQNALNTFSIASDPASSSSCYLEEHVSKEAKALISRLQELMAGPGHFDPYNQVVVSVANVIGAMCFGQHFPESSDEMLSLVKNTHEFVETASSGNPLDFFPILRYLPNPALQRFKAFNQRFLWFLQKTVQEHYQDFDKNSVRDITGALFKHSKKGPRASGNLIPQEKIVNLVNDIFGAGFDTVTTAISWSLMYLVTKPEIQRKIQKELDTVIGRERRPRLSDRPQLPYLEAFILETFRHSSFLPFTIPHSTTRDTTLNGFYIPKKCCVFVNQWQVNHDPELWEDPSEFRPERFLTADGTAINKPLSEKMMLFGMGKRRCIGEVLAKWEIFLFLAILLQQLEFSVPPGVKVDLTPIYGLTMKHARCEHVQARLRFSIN

Another data set addresses Cytochrome P450 3A4 (Homo sapiens, UniProt P08684).
Data set [9] can be described thus: cytotoxicity toward NIH3T3 fibroblasts, dose response, counter-screen, cell-based, ATP luminescence, mouse fibroblasts (AID 2010).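 Further: cells exposed to compound for about 90 hours before reading.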 Format: functional.
Data set [10] can be described thus: inhibitors of intracellular T. cruzi replication, confirmation, NIH3T3 host cells, beta-gal luminescence (AID 2044).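 Further: intracellular parasites grown in NIH/3T3 mouse fibroblasts as host cells; luminescent beta-galactosidase reporter signal from transgenic T. cruzi replicating inside host cells; inhibitors lower the luminescence signal.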 Format: functional, cell-based.
The nature of data set [11]: cytotoxicity toward DRD oncogenic fibroblasts, dose response, cell-based, non-viral oncogenic, luminescence (AID 1934). Format: functional. The conditions noted are these: Homo sapiens.
The nature of data set [12]: inhibitors of firefly luciferase expression or activity, dose response, H4 neuroglioma cells, luminescence (AID 1990). Format: functional, cell-based.
Data set [13] in a line: cytotoxicity in HEK-293T cells, dose response, cytotoxicity control for TCR NF-kB inhibitor project, luminescence, T-cell screen hits (AID 489026).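 Further: cells exposed to compound about 14 hours before the viability readout.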 In kind it is functional, cell-based.
The nature of data set [14]: inhibitors of SNCA 5'UTR-driven reporter translation, confirmation, H4 neuroglioma cells, luminescence (AID 1988). Format: functional, cell-based.
For data set [15], the system named is BJ. The data set is described as follows: cytotoxicity toward BJ-TERT fibroblasts, dose response, cell-based, RAS-independent, luminescence (AID 1933). In kind it is functional. The conditions noted are these: Homo sapiens.
For data set [16], the system named is BJ. Briefly: cells. Format: functional, cell-based. The conditions noted are these: Homo sapiens.
Data set [17] relates to BJ. Briefly: cytotoxicity toward BJ-TERT-LT-ST fibroblasts, dose response, cell-based, RAS-independent, luminescence (AID 1935).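 Further: BJ fibroblasts immortalized with TERT plus LT and ST oncogenes.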 In kind it is functional. Particulars: Homo sapiens.
Data set [18] can be described thus: Luminescence Cell-Based Dose Response HTS to Identify Inhibitors of 5'UTR Stem-Loop Driven Prion Protein mRNA Translation in H4 Neuroglioblastoma Cells. [Related pubchem assays: 1827 (Project Summary), 1813 (Primary HTS)]. Format: functional.

Chain of Cytochrome P450 3A4 (P08684 whole entry): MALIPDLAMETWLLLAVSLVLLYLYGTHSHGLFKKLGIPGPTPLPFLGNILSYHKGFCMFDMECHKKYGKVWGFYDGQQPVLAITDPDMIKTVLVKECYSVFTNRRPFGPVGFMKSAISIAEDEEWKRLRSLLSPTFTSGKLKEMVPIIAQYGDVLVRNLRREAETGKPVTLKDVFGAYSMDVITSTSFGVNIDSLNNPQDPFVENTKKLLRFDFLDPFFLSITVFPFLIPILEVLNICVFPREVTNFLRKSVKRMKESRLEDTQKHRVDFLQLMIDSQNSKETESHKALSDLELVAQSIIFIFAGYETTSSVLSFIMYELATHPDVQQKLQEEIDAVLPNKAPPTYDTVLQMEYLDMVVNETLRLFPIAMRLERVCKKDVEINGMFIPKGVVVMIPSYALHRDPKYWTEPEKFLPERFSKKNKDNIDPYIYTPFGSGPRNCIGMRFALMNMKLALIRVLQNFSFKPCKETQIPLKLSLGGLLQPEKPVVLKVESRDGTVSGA
Chain of Cytochrome P450 2C9 (P11712 whole entry): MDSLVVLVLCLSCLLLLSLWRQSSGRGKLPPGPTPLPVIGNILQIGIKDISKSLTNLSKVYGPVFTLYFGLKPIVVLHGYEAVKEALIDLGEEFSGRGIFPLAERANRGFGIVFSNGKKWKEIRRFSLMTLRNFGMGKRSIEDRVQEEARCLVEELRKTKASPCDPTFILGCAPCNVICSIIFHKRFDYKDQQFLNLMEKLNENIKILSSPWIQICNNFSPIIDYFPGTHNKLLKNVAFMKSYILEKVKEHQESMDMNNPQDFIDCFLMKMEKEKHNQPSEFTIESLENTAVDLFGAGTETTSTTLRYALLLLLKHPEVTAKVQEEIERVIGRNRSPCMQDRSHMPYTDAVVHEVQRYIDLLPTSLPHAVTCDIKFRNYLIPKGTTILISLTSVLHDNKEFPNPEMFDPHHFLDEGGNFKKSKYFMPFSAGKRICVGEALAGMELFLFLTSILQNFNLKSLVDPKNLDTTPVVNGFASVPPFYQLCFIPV

Regarding `CCn1c(SCC(=O)N2CCN(c3ccc(F)cc3)CC2)nc2ccccc2c1=O`, the AC50 is 58.9 µM (active) in [1] and 20.1 µM (active) in data set [2].

Take `COc1ccc(-c2c(C)nn3c(N)c(-c4ccccc4)cnc23)cc1OC`: the AC50 in data set [3] is 6.96 µM (active); in [1], 34.8 µM (active); in data set [2], 11.9 µM (active). For the same compound, the CC50 in [4] was 43.3 µM (active).

`Cc1c(Cl)cnc(NC(=O)COC(=O)c2ccc([N+](=O)[O-])s2)c1Cl`: the IC50 in [5] was 5.92 µM (active); at Caspase-3 it was 11.1 µM (active); in data set [6], 6.85 µM (active); in the data set on H9c2, > 79 µM (inactive); in [7], 10.6 µM (active).

For `COc1ccc(CCNc2cc(C)nc3c(-c4ccc(Cl)cc4)cnn23)cc1OC`, the figures for the AC50 in data set [1] and in data set [2] were 24.1 µM (active) and 4.77 µM (active), respectively.

`CCCCCCCCC(=O)c1c(OC)oc(C=O)cc1=O`: in data set [8], the IC50 is 8.25 µM (active).

On to `O=[As](O)(O)c1ccc(NCc2ccccc2)cc1`, for which the AC50 result at Cytochrome P450 2D6 was “inconclusive”.

Take `Cc1noc(C)c1-c1cc(NC2CCNCC2)ncn1`: the AC50 entry is “inconclusive” on Cytochrome P450 2C9, “inconclusive” on Cytochrome P450 2C19, 0.126 µM (inconclusive) on Cytochrome P450 1A2 and “inconclusive” on Cytochrome P450 3A4.

`COc1ccc2c(=O)c(-c3ccccc3C)c(C)oc2c1`: the values for the concentration at half-maximal activity (AC50) entry on Cytochrome P450 2D6, on Cytochrome P450 1A2 and on Cytochrome P450 3A4 were “inconclusive”, 31.6 µM (inconclusive) and “inconclusive”, respectively.

As to `O=C(O)c1cccc(-c2nnn(Cc3ccccc3Cl)n2)c1`, the IC50 in data set [5] was > 100 µM (inactive); on Caspase-3, 15.6 µM (active); in data set [6], 10.9 µM (active); in [7], > 100 µM (inactive).

As for `Cc1ccc(C(=O)COC(=O)c2cccc(NC(=O)c3ccc([N+](=O)[O-])cc3[N+](=O)[O-])c2)cc1`, the IC50 in data set [5] is 4.89 µM (active); at Caspase-3, 22.2 µM (active); in data set [6], > 100 µM (inactive); in data set [7], 5.97 µM (active). The EC50 was > 60 µM (not active) in data set [9] and 1.11 µM (active) in data set [10].

Turning to `CN(C)Cc1c[nH]c2ncnc(O)c12`, the AC50 entry at Cytochrome P450 2D6 is “inconclusive”.

`Cc1ccc(NS(=O)(=O)c2ccc(-c3cnc(C4CC4)o3)cc2)c(C)c1`: the EC50 in [11] was 18.9 µM (inconclusive); in data set [12], 4.97 µM (inconclusive); in data set [14], 0.502 µM (active); in the data set with BJ [15], 1.2 µM (active); with BJ [16], 0.985 µM (active); in the data set with BJ [17] it was 0.847 µM (inconclusive). Besides, the EC50 in data set [18] was 3.3 µM (active). The IC50 in data set [13] is 51.2 µM (inactive). Besides, the figures for the AC50 in [1] and in [2] were 5.23 µM (inconclusive) and < 0.16 µM (active), respectively.

Regarding `CCOC(=O)c1ccccc1N/C=C/C(=O)c1ccccc1`, the IC50 was 16.2 µM (active) in data set [5], 33.1 µM (active) on Caspase-3, 18.7 µM (active) in data set [6] and 9.9 µM (active) in data set [7].

Values taken from ChEMBL document CHEMBL1201862, “PubChem BioAssay data set” (2004).
